The target in this assay is T1, hNav1.5 (Homo sapiens, UniProt Q14524).
T1 construct: host or cells: HEK293
Description: Automated patch clamping (QPatch-16), hNav1.5. Format: cell-based. The protocol:
HEK293 cells stably expressing hNav1.1-1.7 or CHO cells stably expressing hNav1.8 (as described in Example 3 above) were cultured in a T-175 flask in selection antibiotic-free media at 37° C. Cells were grown to 70-80% confluence and harvested using Detachin (Bio-Scientific, NSW, Australia) at 37° C. for 2 min. Dissociated cells were then resuspended in Ex-Cell ACF CHO Medium with HEPES (25 mM; Sigma-Aldrich Co.) and allowed to recover on the QStirrer for 30 min.
The extracellular solution contained in mM: NaCl 145, KCl 4, CaCl2 2, MgCl2 1, HEPES 10 and glucose 10. The pH was adjusted to 7.4 with NaOH and osmolarity was adjusted with sucrose to 305 mOsm. The intracellular solution contained in mM: CsF 140, ethylene glycol tetraacetic acid (EGTA)/CsOH 1/5, HEPES 10 and NaCl 10. The pH was adjusted to 7.3 with CsOH and osmolarity adjusted with sucrose to 320 mOsm. […]
The current-voltage (IV) curve was constructed with a holding potential of −80 mV followed by a pre-pulse of −100 mV for 50 ms and a series of 50 ms step pulses that ranged from −80 to 50 mV in 5 mV increments before returning to a holding potential of −80 mV. Voltage-dependence of activation was determined as normalized Nav conductance (GNa) using: GNa=INa/(Vmemb−Vrev), where Vmemb is the membrane potential and Vrev is the reversal potential for each cell. […]
Background: Patch clamp records ionic current or voltage across a cell membrane.

pIC50: −log10 of the molar value.

T1 sequence (Q14524 whole entry): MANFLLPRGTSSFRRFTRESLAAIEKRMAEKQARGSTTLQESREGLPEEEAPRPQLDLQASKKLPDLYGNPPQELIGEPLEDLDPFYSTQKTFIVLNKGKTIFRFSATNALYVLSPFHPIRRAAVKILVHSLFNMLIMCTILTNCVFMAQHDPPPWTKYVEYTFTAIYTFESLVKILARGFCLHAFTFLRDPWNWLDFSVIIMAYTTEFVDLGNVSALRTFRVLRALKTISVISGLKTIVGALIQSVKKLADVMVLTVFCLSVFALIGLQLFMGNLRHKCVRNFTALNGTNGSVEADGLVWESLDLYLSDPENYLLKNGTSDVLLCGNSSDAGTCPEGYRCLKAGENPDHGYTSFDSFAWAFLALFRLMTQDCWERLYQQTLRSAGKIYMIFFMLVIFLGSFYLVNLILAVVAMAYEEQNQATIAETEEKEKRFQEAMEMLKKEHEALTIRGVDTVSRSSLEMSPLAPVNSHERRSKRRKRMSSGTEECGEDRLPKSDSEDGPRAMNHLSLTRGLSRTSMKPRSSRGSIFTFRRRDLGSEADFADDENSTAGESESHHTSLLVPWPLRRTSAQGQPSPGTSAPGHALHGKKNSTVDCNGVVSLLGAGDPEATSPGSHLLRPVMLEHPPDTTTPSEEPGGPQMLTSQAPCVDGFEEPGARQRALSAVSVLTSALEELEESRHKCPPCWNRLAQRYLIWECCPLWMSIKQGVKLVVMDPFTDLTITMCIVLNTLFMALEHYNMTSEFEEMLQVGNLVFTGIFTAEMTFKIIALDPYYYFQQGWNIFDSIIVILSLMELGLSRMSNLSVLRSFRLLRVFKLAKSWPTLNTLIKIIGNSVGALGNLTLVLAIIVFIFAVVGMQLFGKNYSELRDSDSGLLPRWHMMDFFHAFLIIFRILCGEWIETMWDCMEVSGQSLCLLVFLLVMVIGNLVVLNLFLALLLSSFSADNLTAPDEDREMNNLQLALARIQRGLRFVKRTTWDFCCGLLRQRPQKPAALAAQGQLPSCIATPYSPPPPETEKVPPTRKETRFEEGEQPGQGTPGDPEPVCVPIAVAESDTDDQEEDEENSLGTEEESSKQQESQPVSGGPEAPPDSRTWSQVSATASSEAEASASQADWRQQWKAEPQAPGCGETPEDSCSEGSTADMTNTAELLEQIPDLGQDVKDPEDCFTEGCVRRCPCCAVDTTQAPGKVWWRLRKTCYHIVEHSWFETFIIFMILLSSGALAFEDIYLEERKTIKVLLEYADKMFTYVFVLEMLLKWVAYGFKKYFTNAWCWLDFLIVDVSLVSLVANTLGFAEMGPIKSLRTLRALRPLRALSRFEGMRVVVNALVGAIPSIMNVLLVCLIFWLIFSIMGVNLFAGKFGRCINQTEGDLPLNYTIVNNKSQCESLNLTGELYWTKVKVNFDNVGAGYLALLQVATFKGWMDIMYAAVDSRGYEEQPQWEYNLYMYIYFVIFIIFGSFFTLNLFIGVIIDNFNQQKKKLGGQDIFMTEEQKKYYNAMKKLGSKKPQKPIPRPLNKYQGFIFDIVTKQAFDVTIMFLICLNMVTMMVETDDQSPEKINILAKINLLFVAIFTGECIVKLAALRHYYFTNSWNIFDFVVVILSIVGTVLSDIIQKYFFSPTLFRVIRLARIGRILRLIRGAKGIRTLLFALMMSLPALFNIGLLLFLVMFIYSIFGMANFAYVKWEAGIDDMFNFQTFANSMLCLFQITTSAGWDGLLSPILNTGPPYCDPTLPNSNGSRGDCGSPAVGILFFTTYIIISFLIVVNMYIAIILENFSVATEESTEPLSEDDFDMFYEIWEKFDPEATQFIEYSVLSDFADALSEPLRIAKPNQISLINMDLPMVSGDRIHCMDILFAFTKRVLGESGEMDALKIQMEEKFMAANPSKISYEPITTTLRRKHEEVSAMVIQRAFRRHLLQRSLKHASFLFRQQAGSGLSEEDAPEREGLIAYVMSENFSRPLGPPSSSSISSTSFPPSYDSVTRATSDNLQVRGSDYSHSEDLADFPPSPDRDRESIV

By pIC50 is commonly meant the negative decadic logarithm of the IC50, by convention in mol/L. In turn, `CSCC[C@@H]1NC(=O)[C@H](Cc2ccc(O)cc2)NC(=O)[C@H](CCCNC(=N)N)NC(=O)[C@@H](NC(=O)[C@@H](N)CC(=O)O)CSSC[C@@H]2NC(=O)[C@@H]3CSSC[C@@H](C(=O)N[C@@H](C)C(=O)N[C@@H](Cc4c[nH]c5ccccc45)C(=O)N[C@@H](CC(=O)O)C(=O)N[C@@H](Cc4ccccc4)C(=O)N[C@H](C(=O)N[C@@H](Cc4ccccc4)C(=O)N[C@H](C(=O)O)[C@@H](C)O)[C@@H](C)O)NC(=O)[C@H](Cc4ccc(O)cc4)NC(=O)[C@H](CCCCN)NC(=O)[C@H](CCSC)NC(=O)[C@H](CCCCN)NC(=O)[C@H](CCCNC(=N)N)NC(=O)[C@H](CCCCN)NC(=O)[C@H](CSSC[C@H](NC(=O)[C@H](CC(=O)O)NC(=O)CNC(=O)[C@H](Cc4ccccc4)NC1=O)C(=O)N[C@@H](CCC(=O)O)C(=O)N[C@@H](CCCCN)C(=O)N[C@@H](CC(=O)O)C(=O)N[C@@H](CCC(=O)O)C(=O)N[C@@H](CC(=O)O)C(=O)N3)NC(=O)CNC(=O)[C@H](CC(C)C)NC(=O)[C@H](Cc1cnc[nH]1)NC(=O)[C@H](CCCCN)NC2=O` [Pnc1a] showed a pIC50 of 6.01.
